Literature values in US12285413B2 (priority 2020, dated 2025).

Assays:
MERS-CoV = settings: multiple in vitro systems, including primary human airway epithelial cell cultures
SARS-CoV [1] = settings: mouse, prophylactic and early therapeutic administration
SARS-CoV [2] = settings: multiple in vitro systems, including primary human airway epithelial cell cultures
glucocorticoid receptor = glucocorticoid receptor (Homo sapiens, UniProt P04150); settings: relative to cortisol
Sequence of glucocorticoid receptor (P04150 whole entry): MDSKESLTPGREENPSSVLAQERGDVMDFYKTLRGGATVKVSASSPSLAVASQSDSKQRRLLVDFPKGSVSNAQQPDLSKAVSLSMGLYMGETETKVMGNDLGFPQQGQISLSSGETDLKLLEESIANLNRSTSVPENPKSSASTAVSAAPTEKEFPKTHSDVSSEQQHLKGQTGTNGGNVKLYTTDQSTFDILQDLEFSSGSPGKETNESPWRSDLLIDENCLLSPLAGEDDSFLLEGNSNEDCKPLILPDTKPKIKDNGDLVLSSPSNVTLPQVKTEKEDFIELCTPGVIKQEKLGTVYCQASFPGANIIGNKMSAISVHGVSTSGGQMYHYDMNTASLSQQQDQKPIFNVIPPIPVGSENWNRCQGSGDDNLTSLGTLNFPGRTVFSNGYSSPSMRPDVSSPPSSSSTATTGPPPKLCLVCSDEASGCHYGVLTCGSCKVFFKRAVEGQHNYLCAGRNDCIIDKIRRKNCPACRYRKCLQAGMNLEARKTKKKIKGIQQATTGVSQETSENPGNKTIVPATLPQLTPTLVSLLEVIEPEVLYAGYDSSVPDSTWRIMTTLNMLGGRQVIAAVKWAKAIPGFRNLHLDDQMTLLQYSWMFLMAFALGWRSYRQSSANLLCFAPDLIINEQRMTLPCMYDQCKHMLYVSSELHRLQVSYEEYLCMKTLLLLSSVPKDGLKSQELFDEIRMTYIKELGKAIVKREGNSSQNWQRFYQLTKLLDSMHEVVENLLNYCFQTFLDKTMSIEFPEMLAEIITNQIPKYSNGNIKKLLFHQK

## CCN(CCO)CCCC(C)Nc1ccnc2cc(Cl)ccc12 (stereo not shown) [Hydroxychloroquine]
coronavirus
  effect on coronavirus replication in in-vitro systems: inhibitory effects

## CCC(CC)COC(=O)[C@H](C)N[P@](=O)(OC[C@H]1O[C@@](C#N)(c2ccc3c(N)ncnn23)[C@H](O)[C@@H]1O)Oc1ccccc1 [Remdesivir]
MERS-CoV
  EC50, inhibition of MERS-CoV replication: submicromolar
SARS-CoV [1]
  lung viral load: reduced lung viral load
  respiratory function: improved respiratory function
SARS-CoV-2
  antiviral activity in SARS-CoV-2 in-vitro models: antiviral activity
SARS-CoV [2]
  EC50, inhibition of SARS-CoV replication: submicromolar

## C[C@@H]1C[C@H]2[C@@H]3CCC4=CC(=O)C=C[C@]4(C)[C@@]3(F)[C@@H](O)C[C@]2(C)[C@@]1(O)C(=O)CO [dexamethasone]
Glucocorticoid receptor
  anti-inflammatory and immunosuppressive potency versus cortisol: approximately 30 times
